Assay results: patent publication US20150285812A1, “Fluorescence-Labelled Fatty Acids and Uses Thereof” (SANOFI, priority 2012, published 2015)
“Also recorded” adds a separate entry of the source.

How the values were obtained:
HSA [1] = molecular target: T1, HSA (Homo sapiens, UniProt P02768); experiment: Displacement of NBD derivatives on HSA by natural fatty acids C6 to C16 (fluorescence); assay type: binding; settings: ranking among NBD C8, C10 and C12 from the competition experiments
T1 construct: purchased Sigma Aldrich A1887
T1 sequence (P02768 25-609): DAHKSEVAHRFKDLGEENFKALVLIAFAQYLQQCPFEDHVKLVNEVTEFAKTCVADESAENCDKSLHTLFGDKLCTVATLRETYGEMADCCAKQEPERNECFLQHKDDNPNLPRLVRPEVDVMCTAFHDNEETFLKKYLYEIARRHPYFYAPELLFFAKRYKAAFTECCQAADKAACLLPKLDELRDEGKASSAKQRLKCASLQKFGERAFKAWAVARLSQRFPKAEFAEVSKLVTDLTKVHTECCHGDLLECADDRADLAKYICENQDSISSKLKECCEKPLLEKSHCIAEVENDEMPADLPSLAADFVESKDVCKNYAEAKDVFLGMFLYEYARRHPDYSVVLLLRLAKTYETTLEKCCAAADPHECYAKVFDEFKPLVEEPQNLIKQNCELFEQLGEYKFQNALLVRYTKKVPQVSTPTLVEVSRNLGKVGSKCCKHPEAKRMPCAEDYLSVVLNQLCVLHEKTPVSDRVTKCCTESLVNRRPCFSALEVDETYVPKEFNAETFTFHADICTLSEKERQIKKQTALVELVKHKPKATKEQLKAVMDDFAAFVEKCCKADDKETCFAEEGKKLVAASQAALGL
Description: Dilution series for competition experiments with the fatty acids C6 to C16 were diluted with phosphate-buffered saline solution (DPBS buffer). Geometric dilution series of each fatty acid were prepared in 384 well microplates with a starting concentration of 2500 μM and a dilution factor of 0.33 and also 9 dilution steps. The final volume of each concentration was 80 μl. The plated-out fatty acids were stored in the deep freeze (−25° C.) until use.
For displacement experiments 2.50 ml of a 25 μM HSA solution were used per dye derivative. Due to the subsequent dilution steps the HSA concentration was doubled twice such that 2.50 ml of […] solution were prepared.
The dye concentrations were also doubled twice by the following dilution steps. 2.50 ml of each dye solution were needed. 2.10 ml of the respective dye solution were then mixed with 2.10 ml of the 100 μM HSA solution. The respective concentrations of the solutions halve here once. 50 μl of the mixture per well were introduced into a 96 well microplate.
The fatty acid microplates were brought to room temperature and 50 μl each of the dilution series were pipetted into the HSA-dye mixture. The concentrations of all solution constituents were thereby halved once again. In analogy to the experiments measuring the fluorescence of the fluorescence-labelled derivatives without HSA above, the solutions were pipetted from the 96 well microplate into a 384 well microplate. Absorption was not measured. The fluorescence measurement without a wavelength scan was carried out in analogy to the above-referenced experiment.
A concentration of 25 μM and a binding ratio of the NBD derivatives to HSA of 1:1 were employed for the displacement studies. For each dye derivative an NBD-HSA mixture with a concentration of 25 μM was prepared.

amino acid Trp214 of HSA = molecular target: T2, amino acid Trp214 of HSA (Homo sapiens, UniProt P02768); experiment: FRET interactions of NBD C12 (17) with Trp214 of HSA; assay type: binding; settings: for tryptophan emission intensity of HSA after addition of the dye: emission 330 nm, without dye 170/171 FI
T2 construct: purchased Sigma Aldrich A1887
T2 sequence (P02768 25-609): as above
Description: For determining FRET (Förster resonance energy transfer) interactions of NBD C12 (17) with amino acid Trp214 of HSA, concentrations of a dye-HSA mixture according to Table 8 were applied in an amount of 250 μl for each case.
100 μl of mixture 7 were pipetted into a 96 well microplate and a wavelength scan for the absorption in the range from 250 nm to 700 nm was carried out. In each case 15 μl of the residual solutions 1 to 6 were pipetted four times into a black 384 well microplate and emission spectra of the solution in the range from 270 nm to 700 nm were recorded at 290 nm excitation wavelength of the Trp.
For dye NBD C12 (17) the FRET effect between the tryptophan of the HSA and the dye itself was investigated more precisely. The emission spectrum of the amino acid tryptophan overlapped with the absorption spectrum of the NBD dye, because the energy of the donor to be transferred must lie in the region of the possible energy absorption of the acceptor. This is the case when the two spectra overlap. For measurement, both solutions were employed in identical concentrations (25 μM) and the units of the fluorescence intensities (FIrel) and the absorption strength (ODrel) were standardized. An excitation wavelength of 290 nm was utilized for the emission spectrum of tryptophan.
In the next step, different concentrations of NBD C12 (17) were added to the HSA solution until a ratio of NBD to HSA of 1:1 was reached, and the emission spectra were measured.
The efficiency of the energy transfer occurring was calculated using the equation 3.4.
The distance R0, at which a 50% energy exchange takes place, was calculated according to the following equation. Furthermore, by transformation of said equation the real distance r of donor and acceptor was determined.
The fluorescence quantum yield for tryptophan is 0.15.

HSA [2] = molecular target: T1, HSA; experiment: Competition of NBD C12 (17) on HSA with ibuprofen and warfarin; assay type: binding; settings: from competition with warfarin and ibuprofen
Description: In analogy to the experiments measuring the fluorescence of the fluorescence-labelled derivatives without HSA above, the solutions were pipetted from the 96 well microplate into a 384 well microplate. […] The fluorescence measurement without a wavelength scan was carried out in analogy to the above-referenced experiment.

HSA [3] = molecular target: T1, HSA; experiment: Fluorescence of NBD and dansyl dyes with increasing HSA (FRET effect, emission maxima); assay type: binding
Description: Absorption and fluorescence of fluorescence-labelled derivatives and HSA were carried out in a Varioskan™ microplate reader (Thermo Electron Corporation). 96 well (Costar, half area, flat bottom) microplates were used for absorption measurements and 384 well (Greiner Bio One, small volume, black) microplates from Greiner Bio One were used for fluorescence measurements. All measurements were carried out at pH 7.4 and room temperature.
5.00 ml of a 400 μM solution were prepared from the HSA stock solution. From this solution a geometric dilution series with 7 dilution steps, a dilution factor of 0.5 and a final volume of each concentration of 2.5 ml were prepared.
Defined concentrations of the fluorescence-labelled compounds were selected from the preceding experiment without HSA above and double-concentrated solutions thereof were prepared to take into account the later 1:1 dilution. For each fluorescence-labelled compound (12-17; 19-25) 1.00 ml of these double-concentrations was prepared. 50 μl of the dye solutions were introduced into a 96 well microplate and 50 μl each of the HSA dilution series were added. By mixing the solutions the concentrations of dye derivatives and the HSA solution were halved. The measurements of the absorption and fluorescence were carried out in analogy to the above experimental procedure without HSA.
In analogy to the absorption measurement the effect of HSA on the fluorescence of the dyes (12-17; 19-25) was determined. The same concentrations of NBD and dansyl dyes and the same concentration range for HSA as already described above were used.

[4] = log D7.4 determination by RP-HPLC, similar to the water/octanol partition coefficient method; assay type: physicochemical; settings: pH 7.4, RP-HPLC C18, range −1 to +6
Description: log D7.4 values were determined by a method similar to the partition coefficient method in a water/octanol mixture and were carried out on an RP-HPLC from Waters Alliance (2795) having a C18 column (2×20 mm) with a gradient of morpholinesulfonic acid buffer (pH 7.4) and acetonitrile. The range was between −1 ([…]) to +6 (lipophilic).

[5] = HSA 25 μM, NBD to HSA up to 1:1, excitation 290 nm

Q: For `O=C(O)CCCCCCCCCCCNc1ccc([N+](=O)[O-])c2nonc12` [NBD C12 (17), 12-(7-Nitrobenzo[1,2,5]oxadiazol-4-ylamino)dodecanoic acid], which “relative binding affinity of the NBD dye for HSA” value (HSA [1]) is on record?
A: greatest binding affinity; also recorded: bounds best

Q: And the “fluorescence of the dye on excitation of tryptophan” value (amino acid Trp214 of HSA; [5])?
A: 15 FI

Q: What about the “tryptophan emission intensity of HSA after addition of the dye” value (amino acid Trp214 of HSA; [5]) of the same compound?
A: 82 FI

Q: What about the “tryptophan emission intensity of HSA after addition of the dye” value (amino acid Trp214 of HSA; HSA 25 μM, NBD to HSA up to 1:1, excitation 290 nm, listed as NBD dye C12 (17)) of the same compound?
A: 80 FI

Q: What about the “efficiency of the energy transfer” value (amino acid Trp214 of HSA; calculated from I 82 FI and I0 171 FI) of the same compound?
A: approximately 52%

Q: What about the “binding site on HSA” value (HSA [2]) of the same compound?
A: neither bound the Sudlow's site I nor the Sudlow's site II

Q: And the “Δλ, shift of emission maximum λem without HSA vs with HSA” value (HSA [3]; NBD compound 25 μM, λex = 480 nm)?
A: 16 nm

Q: What about the “change in fluorescence intensity with increasing HSA concentration” value (HSA [3]; NBD derivatives 25 μM, HSA 1.56 to 200 μM, 480-550 nm, pH 7.4) of the same compound?
A: increase in fluorescence intensity

Q: What about the chromatographic logD [4] of the same compound?
A: 2.84

Q: And the “log D7.4” value [4]?
A: 2.84
